# Measurements reported in patent US8481497B2, “Therapeutic agent for cancer, and method for treatment of cancer” (Sapporo Medical University, priority 2007, dated 2013).
# Experiments:
# FGFR1 in KMS12BM cells = assay: FGFR1 expression at mRNA level in multiple myeloma cell line by DNA array; format: cell-based; settings: 1 micro M decitabine (72 hours) and/or 0.5 micro g/mL ADR (24 hours)
# Method: Using a DNA array, 1 micro M decitabine and/or 0.5 micro g/mL ADR was administered to KMS12BM cells and a change in expression of FGFR1 at the mRNA level was examined 72 hours after administration of decitabine and 24 hours after administration of ADR. In the graph, the expression level ratio relative to the expression level in the cell line to which no drug was administered is shown on the vertical axis. In the graph, the decitabine administration group is shown by Aza.
# FGFR1 = settings: human hepatic stellate cells; cited from earlier work
Molecule,expression level of FGFR1 at the mRNA level (FGFR1 in KMS12BM cells),expression of FGFR1 (FGFR1)
"COc1cccc2c1C(=O)c1c(O)c3c(c(O)c1C2=O)C[C@@](O)(C(=O)CO)C[C@@H]3O[C@H]1C[C@H](N)[C@H](O)[C@H](C)O1 [ADR, adriamycin]",increased,
"interferon-gamma: type II interferon, a cytokine (protein, UniProt P01579 24-161, looked up) Interferon gamma: QDPYVKEAENLKKYFNAGHSDVADNGTLFLGILKNWKEESDRKIMQSQIVSFYFKLFKNFKDDQSIQKSVETIKEDMNVKFFNSNKKKRDDFEKLTNYSVTDLNVQRKAIHELIQVMAELSPAAKTGKRKRSQMLFRG",,reduces
